The text below walks through data of the SangsterLogP compilation.

By logP is commonly meant the decadic logarithm of the partition coefficient of the neutral form, usually between octanol and water. Lower therefore signals lower lipophilicity. For orientation: logD means lipophilicity at a set pH, counting ionised and neutral species.

Data set [1] can be described thus: method code SF-GLC, from DOI: 10.1016/0378-4274(82)90116-3, PMID: 7090003.
Data set [2] can be described thus: method code SF-AS, from DOI: 10.1016/j.ejmech.2004.01.002, PMID: 15072846. The note with it: pH 7.4.
Data set [3] in a line: method code SF-AS, from DOI: 10.1148/radiology.194.3.7862981, PMID: 7862981.
Test in data set [4]: not given
This is another data set of the same source.

The nature of data set [5]: method code SF, from DOI: 10.1080/09553009014551091, PMID: 1970998. The settings on record: pH 7.4.
Test in data set [6]: not given
The source holds these as a separate data set.

Data set [7] can be described thus: method code SF-HPLC, from DOI: 10.1002/jps.2600750520, PMID: 3735094. The settings on record: pH 4.0.
Test in data set [8]: not given
This is another data set of the same source.

Data set [9] in a line: method code SF-HPLC, from PMID: 3268116. The note with it: pH 7.0.
The nature of data set [10]: method code SF, from DOI: 10.1002/jbm.820150603, PMID: 7309762.
The nature of data set [11]: method code SF-AS, from DOI: 10.1248/cpb.26.2824.
A short description of data set [12]: method code SF-GLC, from PMID: 6629728. The settings on record: pH 7.4.
The nature of data set [13]: method code SF, from DOI: 10.1038/248065a0, PMID: 4150456. The note with it: pH 9.0.
Test in data set [14]: not given
This is another data set of the same source.

A short description of data set [15]: method code SF-HPLC, from Hairsine, P. (1997). Direct measurement of partition coefficient by shake flask technique and gradient elution HPLC. Lab. Practice, 38(11)73-75.
Data set [16] in a line: method code SF-RC, from Audran, M.; Chanal, J.; Marignan, R.; Cousse, H. (1984). Correlations between structure and pharmacokinetic parameters in a series of cresotinamides. International Journal of Pharmaceutics, …. The note with it: pH 1.0.
Data set [17] is described as follows: method code SF-AS, from DOI: 10.1021/es00082a014. The settings on record: pH 7.0.
The nature of data set [18]: method code SF-LC/MS, from DOI: 10.1002/rcm.3594, PMID: 18543375. The settings on record: pH 7.4.
Data set [19] can be described thus: method code SF-AS, from DOI: 10.1016/0378-5173(80)90117-9.
Data set [20] can be described thus: method code SF-HPLC, from DOI: 10.1021/jf0623440, PMID: 17263479.
The nature of data set [21]: method code SF-AS, from DOI: 10.1111/j.2042-7158.1981.tb11766.x. The note with it: pH 1.0.
A short description of data set [22]: method code SF-HPLC, from DOI: 10.1016/s0021-9673(01)81976-2, PMID: 4066822.
Test in data set [23]: not given
This is another data set of the same source.

Test in data set [24]: not given
The source holds these as a separate data set.

Data set [25] can be described thus: method code SF-AS, from Halmekoski, J.; Hannikainen, H. (1964). Rm values of hydroxy-substituted benzoic acids and partition coefficients of the acids between water and aliphatic alcohols. Suomen Kemist. B, 37, 221-226.
Data set [26] can be described thus: method code SF-RC, from DOI: 10.1038/sj.bjc.6601862, PMID: 15150578.
Data set [27] in a line: method code SF-RC,FL, from DOI: 10.1016/0006-2952(81)90006-x, PMID: 6456004.
Data set [28] in a line: method code SF-AS, from DOI: 10.1016/s0022-3565(25)24763-2, PMID: 2019981. The note with it: pH 7.4.
Test in data set [29]: not given
The source holds these as a separate data set.

A short description of data set [30]: method code SF, from DOI: 10.1002/jps.2600641111, PMID: 1195110. The settings on record: pH 7.4.
Test in data set [31]: not given
The source holds these as a separate data set.

Test in data set [32]: not given
The source holds these as a separate data set.

The nature of data set [33]: method code SF-HPLC, from DOI: 10.1021/je900271h.
The nature of data set [34]: method code SF-AS, from DOI: 10.1007/s0012800114, PMID: 10885996.
Data set [35] is described as follows: method code SF-GLC, from DOI: 10.1039/an9709500763, PMID: 5449617.
The nature of data set [36]: method code SF-GLC, from DOI: 10.1016/s0022-3565(25)30310-1, PMID: 1181405. The settings on record: pH 7.4.
Data set [37] in a line: method code SF-AS, from DOI: 10.2116/analsci.8.761. The settings on record: pH 6.0.
Data set [38] can be described thus: method code SF-HPLC, from PMID: 11745753. The settings on record: pH 7.4.
Data set [39] is described as follows: method code SF-AS, from DOI: 10.1016/j.jhazmat.2007.11.074, PMID: 18180104.
Data set [40] can be described thus: method code …, from Buur, A., & Bundgaard, H. (1984). Prodrugs of 5-fluorouracil. II. Hydrolysis kinetics, bioactivation, solubility and lipophilicity of N-alkoxycarbonyl derivatives of 5-fluorouracil. Arch. Pharm. …. The settings on record: pH 4.0.
Data set [41] in a line: method code SF-AS,RC, from DOI: 10.2307/3575891, PMID: 7122830.
Data set [42] can be described thus: method code SF-AS, from DOI: 10.1093/ajhp/38.9.1308, PMID: 7282713.
The nature of data set [43]: method code SF-AS, from DOI: 10.1248/cpb.28.85. The note with it: pH 2.0.
A short description of data set [44]: method code SF-CR, from DOI: 10.1042/bj1780443, PMID: 109087. The settings on record: pH 7.4.
A short description of data set [45]: method code SF-HPLC, from DOI: 10.1002/ps.2780370106. The settings on record: pH 0.0.
Test in data set [46]: not given
The source holds these as a separate data set.

In the case of `C=C(C)C(=O)OC(C)C`, the logP in data set [1] was 2.25.

As for `NC(=O)N/N=C/C=C/c1ccc([N+](=O)[O-])o1`, the logD in [2] stood at 0.97.

For the molecule `O=[N+]([O-])c1nccn1C[C@H](O)[C@H](O)CF`, the logP in [3] was -0.77.

`Cc1ccc([N+](=O)[O-])cc1N` showed a logP of 1.87.

For the molecule `CC(C)OC(C)(C)C`, the logP in [4] is 2.14.

As for `O=C(NCCO)C(F)(F)Cn1ccnc1[N+](=O)[O-]`, in [5], the logD is -0.52.

Turning to `COc1ccc([N+](=O)[O-])c(C)c1`, the logP in data set [6] turned out to be 2.38.

`O=C(OCCCl)n1cc(F)c(=O)[nH]c1=O` came in with a logD in data set [7] of 0.02.

In turn, `O=[N+]([O-])c1nccn1[C@@H]1O[C@H](CO)[C@@H](O)[C@H]1O` registered a lipophilicity (logP) in [8] of -1.15.

Take `c1ccc2[nH]ccc2c1`: in data set [9], the logD was 2.27.

Molecule `C=C(C)C(=O)OCCCC` came in with a logP in data set [10] of 2.6.

With `Cc1ccc(O)c(C(=O)O)c1`, the logP in data set [11] was found to be 2.78.

In the case of `C1CCC(C2CO2)CC1` (configuration not stated), the logD in [12] amounted to 2.43.

The molecule `CNC(=S)NCCSCc1c[nH]cn1` had a logD in [13] of 0.16.

Regarding `C1=CC=CCC=C1`, the logP in data set [14] is 2.63.

In the case of `COc1ccccc1C(=O)O`, the logP in [15] was 1.62.

On to `Cc1cccc(C(N)=O)c1O`, for which the logD in data set [16] came out at 2.12.

In [17], `Cc1ccc(N)cc1C` returned a logD of 1.86.

On to `c1ccc2[nH]cnc2c1`, for which, in data set [18], the logD came out at 1.53.

Molecule `CCOc1ccc(O)cc1` displayed a logP in data set [19] of 1.95.

On to `O=[N+]([O-])/C=C1/NCCN1Cc1cnc(Cl)s1`, for which the logP in [20] turned out to be 0.03.

`O=C(O)c1ccc(O)cc1` returned a log distribution coefficient (logD) in data set [21] of 1.56.

In the case of `COC1=C(OC)C(=O)C=CC1=O`, the logP in [22] was found to be 0.34.

Regarding `Cc1ncc(COP(=O)(O)O)c(C=O)c1O`, the logP in data set [23] turned out to be 0.37.

The molecule `COP(=S)(OC)Oc1cc(Cl)c(Cl)cc1Cl` returned a logP in data set [24] of 4.67.

Consider `O=C(O)c1cc(O)ccc1O`, for which the logP in data set [25] came to 1.12.

As to `O=C(Cn1ccnc1[N+](=O)[O-])NCCF`, the logP in [26] is -0.8.

In the case of `NCCc1ccc(O)c(O)c1`, the log partition coefficient (logP) in [27] is -0.97.

In [28], `CCc1occc(=O)c1O` gave a logD of 0.6.

In data set [29], `COC(=O)c1nc(Cl)c(Cl)c(N)c1Cl` displayed a logP of 2.3.

Regarding `CC(=O)OCCn1c([N+](=O)[O-])cnc1C`, the logD in data set [30] turned out to be 0.3.

Consider `CCCCCCCBr`, for which, in [31], the logP is 4.44.

On to `O=NN(CCF)C(=O)NC1CCS(=O)(=O)CC1`, for which, in data set [32], the logP was -0.41.

For the molecule `COc1cc(C(=O)O)ccc1O`, in [33], the logP turned out to be 1.46.

On to `CS(=O)(=O)c1ccc(C=O)cc1`, for which the logP in [34] was 0.35.

`COP(=O)(OC)Oc1ccc([N+](=O)[O-])cc1`: the logP in [35] turned out to be 1.33.

`CCCCCOC(=O)NC` came in with a logD in data set [36] of 1.96.

As to `OCc1ccc(O)cc1`, the logD in data set [37] was determined as 0.48.

Turning to `COC(=O)c1ccc(N)cc1`, the logD in data set [38] is 1.48.

On to `CNc1ccc([N+](=O)[O-])cc1`, for which, in data set [39], the logP came to 1.98.

With `CCOC(=O)n1c(=O)[nH]cc(F)c1=O`, in data set [40], the logD came to 0.11.

As for `COCC(O)Cn1cc(Br)nc1[N+](=O)[O-]` (configuration not stated), the logP in [41] was 0.46.

`NNc1nncc2ccccc12` had a logP in data set [42] of 1.

Molecule `O=C(O)COc1ccccc1` had a logD in data set [43] of 1.35.

In [44], `CCc1ccc(O)cc1` came in with a logD of 2.4.

In turn, `NC(=O)Nc1ccc(C(=O)O)cc1` registered a logD in data set [45] of 0.73.

In data set [46], `O=C(O)c1ccc([N+](=O)[O-])cc1` displayed a logP of 1.9.
